Measured values as given in patent US4021472A, “Guanidinobenzoic acid derivatives” (Ono Pharmaceutical Co., Ltd., priority 1974, dated 1977).
Converted amounts (≈) assume the structure as drawn. Like-named read-outs stand apart in the source and are kept apart here.

Experiments:
Solubility in water = format: physicochemical
trypsin = target: T1, trypsin (Bos taurus, UniProt P00760); experiment: Anti-trypsin: 50% inhibition of hydrolysis of p-tosylarginine methyl ester by trypsin in vitro; format: biochemical; conditions: 37° C., 30 minutes, Tris-HCl buffer pH 8.5, p-tosylarginine methyl ester substrate; read-out: 50% Inhibition Concentration, Anti-Trypsin
T1 sequence (P00760 24-246): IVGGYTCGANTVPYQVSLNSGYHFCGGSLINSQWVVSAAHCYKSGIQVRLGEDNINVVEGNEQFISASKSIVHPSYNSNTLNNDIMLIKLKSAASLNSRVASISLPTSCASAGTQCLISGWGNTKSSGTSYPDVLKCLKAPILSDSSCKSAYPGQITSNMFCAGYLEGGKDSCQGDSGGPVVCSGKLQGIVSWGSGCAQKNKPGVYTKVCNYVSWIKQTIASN
Procedure: The inhibitory activities of representative compounds of formula (I) against plasmin and trypsin in vitro were determined in a manner similar to the method described by M. Muramatsu et al (J. Biochemistry 57, 402 (1965)) for plasmin, and the method described by M. Muramatsu et al (J. Biochemistry 58, 214 (1964)) for trypsin, as follows:
(2) Trypsin: A system comprising 0.4 ml of trypsin (1.25 μg/ml), 0.5 ml of p-tosylarginine methyl ester (20 mM) in Tris-HCl buffer (pH 8.5) and 0.1 ml of a solution of each of the following compounds of formula (I) at various concentrations was reacted at a temperature of 37° C. for 30 minutes. The concentration of each of the test compounds at which the activity of trypsin 0.5 μg to hydrolyze p-tosylarginine methyl ester was 50% inhibited is shown in Table 1 below. As a control, Trasylol (tradename of a peptide extracted from bovine organs having an inhibitory activity against a proteolytic enzyme and manufactured by Bayer A.G.) was used.

plasmin [1] = target: T2, plasmin (Homo sapiens, UniProt P00747); experiment: Anti-plasmin: 50% inhibition of plasmin in vitro (euglobulin/streptokinase/fibrinogen system); format: biochemical
T2 construct: from tissue
T2 sequence (P00747 581-810 limits assumed): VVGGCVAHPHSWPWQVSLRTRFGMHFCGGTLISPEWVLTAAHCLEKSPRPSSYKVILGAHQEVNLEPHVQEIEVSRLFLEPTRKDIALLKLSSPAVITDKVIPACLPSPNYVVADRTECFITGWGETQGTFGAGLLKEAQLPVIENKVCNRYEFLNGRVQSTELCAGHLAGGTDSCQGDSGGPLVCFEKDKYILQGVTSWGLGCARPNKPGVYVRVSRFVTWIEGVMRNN
T2 sequence (P00747 97-580 partner limits assumed): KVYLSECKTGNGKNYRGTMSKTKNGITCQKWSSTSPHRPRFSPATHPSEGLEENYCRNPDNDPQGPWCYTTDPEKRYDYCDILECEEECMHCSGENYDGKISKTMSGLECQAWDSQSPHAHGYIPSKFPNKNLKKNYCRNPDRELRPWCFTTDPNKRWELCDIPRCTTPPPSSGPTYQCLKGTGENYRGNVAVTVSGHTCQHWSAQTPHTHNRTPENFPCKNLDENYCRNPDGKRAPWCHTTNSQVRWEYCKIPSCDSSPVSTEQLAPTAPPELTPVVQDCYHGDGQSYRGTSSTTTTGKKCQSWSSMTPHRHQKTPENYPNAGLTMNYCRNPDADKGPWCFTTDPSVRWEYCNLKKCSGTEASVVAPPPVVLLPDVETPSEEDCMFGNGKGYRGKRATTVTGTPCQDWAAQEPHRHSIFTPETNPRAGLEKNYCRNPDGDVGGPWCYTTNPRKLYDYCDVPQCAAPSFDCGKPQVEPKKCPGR
Procedure: (1) Plasmin: A system comprising 0.1 ml of human euglobulin (10 fold dilution), 0.1 ml of streptokinase (2000 unit/ml), 0.4 ml of fibrinogen (4% solution), 0.3 ml of a 0.1 M borate saline buffer solution (pH 7.4) and 0.1 ml of a solution of each of the following compounds of formula (I) at various concentrations was allowed to react at a temperature of 37° C. for 30 minutes.

plasmin [2] = experiment: Inhibitory effects for fibrinolysis of plasmin (fibrinolytic activity in rabbits after human serum and streptokinase); format: in vivo, rabbit; conditions: 5 mg/kg iv
Procedure: Inhibitory effects for fibrinolysis of plasmin were examined according to the method of S. Okamoto and U. Okamoto (Keio Journal of Medicine 11 (No. 3) 105 (1962)).
10 ml of human serum was administered to male rabbits weighing 2.0 to 2.5 Kg through the femoral vein, and after 2 minutes 50,000 units of streptokinase was administered to the rabbits intraveneously to activate plasmin.
Each of the test compounds of the present invention was administered to the rabbits at a dosage level of 5 mg/Kg 5 minutes after the administration of streptokinase. After 15, 30, 60, 90, 120 and 180 minutes, 0.5 ml of blood was drawn from the rabbits, and the blood then incubated at 37° C. for 3 hrs. to coagulate the blood. The thus formed blood clots were washed with water and dried. The dry weight of the blood clots was evaluated and compared with the normal value (the value obtained prior to administration of the human serum).
The values in Table 2 were calculated according to the following equation: [formula]

rat pancreatitis = experiment: Effect on rat pancreatitis induced by sodium taurocholate and trypsin (mortality); format: in vivo, rat (male Wistar); conditions: intravenous injection
Procedure: Male Wistar rats weighing 200 to 250 g were laparotomized under anesthetization with pentobarbital and to the thus laparotomized rats 0.1 ml of a mixture of sodium taurocholate and trypsin was administered through the pancreatic duct to induce pancreatitis.
Mortality rates for up to 48 hrs. after the administration were compared between the groups in which the compounds of the present invention were injected intravenously and the control groups in which a physiological salt solution was injected intravenously.

[3] = 37° C., 30 minutes, borate saline buffer pH 7.4, human euglobulin, streptokinase, fibrinogen, read-out: 50% Inhibition Concentration, Anti-Plasmin

| Structure (SMILES) | solubility (Solubility in water) [mM] | IC50 (trypsin) [nM] | IC50 (plasmin [1]; [3]) [nM] | Fibrinolytic Activity in Rabbits (plasmin [2]; 15 min. after) [%] | Fibrinolytic Activity in Rabbits (plasmin [2]; 30 min. after) [%] | Fibrinolytic Activity in Rabbits (plasmin [2]; 60 min. after) [%] | Fibrinolytic Activity in Rabbits (plasmin [2]; 90 min. after) [%] | Fibrinolytic Activity in Rabbits (plasmin [2]; 120 min. after) [%] | Fibrinolytic Activity in Rabbits (plasmin [2]; 180 min. after) [%] | Mortality for 48 hrs. (rat pancreatitis; 1 mg/kg) [%] | Mortality for 48 hrs. (rat pancreatitis; 2.5 mg/kg) [%] | Mortality for 48 hrs. (rat pancreatitis; 5.0 mg/kg) [%] | IC50 (plasmin [1]) [nM] |
| --- | --- | --- | --- | --- | --- | --- | --- | --- | --- | --- | --- | --- | --- |
| CNC(=O)COC(=O)c1ccc(OC(=O)c2ccc(NC(=N)N)cc2)cc1 [Compound No.2] | 50 (≈ 18500 µg/mL) | 3.5 | 1.6 | 0 | 0 | 2 | 2 | 12 | 31 | 85.7 | 42.8 | 30 | – |
| CN(C)C(=O)COC(=O)Cc1ccc(OC(=O)c2ccc(NC(=N)N)cc2)cc1 [Compound No.5] | 100 (≈ 39800 µg/mL) | 8.5 | – | 0 | 0 | 4 | 20 | 46 | 52 | 64.2 | 50.0 | 44.4 | 38 |
| N=C(N)Nc1ccc(C(=O)Oc2ccc(C(=O)OCC(N)=O)cc2)cc1 [compound 1] | 1 (≈ 356 µg/mL) | 3 | 15 | – | – | – | – | – | – | – | – | – | – |
| CN(C)C(=O)COC(=O)c1ccc(OC(=O)c2ccc(NC(=N)N)cc2)cc1 [compound 3] | > 20 | 2.7 | 2 | – | – | – | – | – | – | – | – | – | – |
| CCCN(CCC)C(=O)COC(=O)c1ccc(OC(=O)c2ccc(NC(=N)N)cc2)cc1 [compound 4] | 10 (≈ 4410 µg/mL) | 1.4 | 0.53 | – | – | – | – | – | – | – | – | – | – |
| CN(C)C(=O)COC(=O)C=Cc1ccc(OC(=O)c2ccc(NC(=N)N)cc2)cc1 [compound 6] | 10 (≈ 4100 µg/mL) | 0.09 | 19.5 | – | – | – | – | – | – | – | – | – | – |
| CN(C)C(=O)COC(=O)CCc1ccc(OC(=O)c2ccc(NC(=N)N)cc2)cc1 [compound 7] | 10 (≈ 4120 µg/mL) | 0.56 | 120 | – | – | – | – | – | – | – | – | – | – |
| CNC(=O)COC(=O)Cc1ccc(OC(=O)c2ccc(NC(=N)N)cc2)cc1 [compound 8] | 10 (≈ 3840 µg/mL) | 12 | 10 | – | – | – | – | – | – | – | – | – | – |
